These results are taken from patent publication US20080045500A1, “Nerve Regeneration Stimulator” (priority 2004, published 2008).

Molecules are shown by their SMILES. Entries after “also recorded” stand apart in the source; their conditions may differ.

Experiment [1] deals with neural stem cells (BrdU positive cells) in hippocampal dentate gyrus. The experiment can be described thus: Nerve regeneration in mouse hippocampal dentate gyrus: BrdU labelling, immunohistochemical count and GCL volume. It is filed as in vivo.
Experimental: C57BL/6 male SPF mice (8-week-old at the beginning of the experiments) purchased from Japan SLC, Inc. were used. Animals were subjected to experiments after acclimating in a breeding room under control at a temperature of 23±1° C. and illumination of 12 hours (7:00 to 19:00) for 5 days or longer. During breeding, animals had free access to solid food MF (Oriental Yeast Co., Ltd.) and water (tap water).
BrdU (Sigma) for labeling neural stem cells was used by dissolving in a phosphate buffer solution (PBS: Sigma) containing 0.007N HCl at a concentration of 5 mg/mL (Yoshimura et al., PNAS, 98, 5874-5879, 2001, Yoshimura et al., J. Clin. Invest., 112, 1202-1210, 2003). BrdU was intraperitoneally administered at a dose of 50 mg/kg (0.1 ml BrdU solution/10 g weight) for three times (every 4 hours).
Injectable distilled water was orally administered to animals of the vehicle control group.
The removed brain was sliced into coronal sections in a frozen state with a thickness of 40 μm using a sliding microtome (Leica, Model SM2000R, Nussloch). The sliced brain tissues were successively placed in 10 wells of a culture plate with a PBS solution containing sodium azide such that 10 sections were placed per well.
Immunostaining of the brain tissues were carried out by flotation (Yoshimura et al., PNAS, 98, 5874-5879, 2001, Yoshimura et al., J. Clin. Invest., 112, 1202-1210, 2003). Peroxidase method (ABC system, Vector Laboratories Inc.) was used for immunohistochemical detection of BrdU (Yoshimura et al., PNAS, 98, 5874-5879, 2001, Yoshimura et al., J. Clin. Invest., 112, 1202-1210, 2003). As a primary antibody to BrdU, rat anti-BrdU antibody (400-fold-diluted, Accurate Chemical & Scientific Corporation) was used. As a secondary antibody, rabbit IgG biotinylated antibody (200-fold-diluted, Vector Laboratories Inc.) was used
For quantitation, four hippocampal sections (intervals of sections being 400 μm, four sections between −1.4 mm to −2.6 mm from bregma) were used for each individual. All of the BrdU positive cells present in a subgranular zone (SGZ) and a granule cell layer (GCL) of the hippocampal dentate gyrus were determined. SGZ was defined as an area with a depth of 20 μm (a size corresponding to two cells) just below the GCL (on the side of hylus). […] The GCL area in each hippocampal section was determined as a cresyl violet positive GCL area using an image analyzing software (NIH, image ver. 1.60).
A volume of GCL (GCLV) was determined as a GCL volume in left hemisphere between −1.4 mm to −2.6 mm from bregma (Cavalieri technique). The number of BrdU positive cells in GCLV was calculated by multiplying the number of BrdU positive cells in the four hippocampal sections by 10. […]
All of the quantitative values are indicated in mean ±standard error (n=8 for each group).
Experiment [2] shares this test system. The experiment can be described thus: Nerve regeneration in rat hippocampal dentate gyrus: BrdU labelling, immunohistochemical count and GCL volume. It is filed as in vivo. As to conditions: for GCL volume / Number of BrdU positive cells per hippocampus: SD rats, mean ± standard error, n=11; for Number of BrdU positive cells per hippocampus: vehicle 5490 ± 179, * p<0.05. The protocol:
SD male SPF rats (6-week-old at the beginning of the experiments) purchased from Japan SLC, Inc. were bred under the same conditions as the mice in Example 2. Animals were subjected to experiments after acclimating for 5 days or longer following purchase.
BrdU (Sigma) for labeling neural stem cells was dissolved in PBS containing 0.014N HCl at a concentration of 10 mg/mL. BrdU was intraperitoneally administered at a dose of 50 mg/kg for three times (every 4 hours).
Injectable distilled water was orally administered at the same volume to animals in the vehicle control group.
The removed brain was sliced into sections as described in Example 2 for use in immunohistochemical studies.
Immunostaining of the brain tissues were carried out as described in Example 2.
For quantitation, four hippocampal sections (thickness of 40 μm, intervals of sections being 400 μm, four sections between −3.6 mm to −4.8 mm from bregma) were used for each individual. BrdU positive cells were counted in the same manner as Example 2. The GCL volume in each hippocampal section and the total number of BrdU positive cells in each hippocampal dentate gyrus were also determined as described in Example 2.
In Table 2, “*” indicates p<0.05, in comparison to the vehicle control group.
Background: Uptake of a labelled nucleoside into DNA is a usual measure of proliferation.

Experiment [3] deals with rat neural progenitor cells. The experiment can be described thus: Intracellular calcium concentration of fetal rat neural progenitor cells (Fluo-3). It is filed as cell-based. The protocol:
Cerebrums were isolated from fetuses obtained from 14.5 days pregnant SD female rats (Japan SLC, Inc.). Cells were dispersed by pipetting the tissue in cold L-15 medium. These cells were cultured in a suspension containing 20 ng/ml human basic fibroblast growth factor (bFGF) in serum-free D-MEM/F-12 medium (supplemented with B-27, N2 (both from Invitrogen) and gentamicin beforehand). The rat neural progenitor cells are known to form a neurosphere in this medium. After 5 to 7 days, the neurosphere was collected and pipetted to isolate the rat neural progenitor cells, followed by passage culture using the medium described above.
The neural progenitor cells were isolated from the neurosphere that was collected a day before the experiment and suspended in the bFGF-free medium otherwise same as described above. After the number of cells was counted, 50,000 cells each were suspended in 100 μL of the medium described above and dispensed into a 96-flat bottom culture plate. Intracellular Ca^++ concentration was determined using a commercially available kit (Calcium Kit-Fluo-3, Dojindo laboratories) according to the attached instruction. To some of the wells, atropine (muscarine receptor antagonist) was added to 25 μmol/L and cultured at 37° C. for 30 minutes beforehand. […]
(In general: A change in cytosolic calcium serves as a functional read-out for many receptors and channels.)

Experiment [4] concerns hippocampus of PTSD patients. Particulars: administration to PTSD patients, reported by Bremner 2002; cited from earlier work.
Where [5] appears, read: 0.5 mg/kg orally once a day for 28 days.
[6] abbreviates: 2 mg/kg orally once a day for 28 days.

Regarding `COc1cc2c(cc1OC)C(=O)C(CC1CCN(Cc3ccccc3)CC1)C2.Cl` (stereo not drawn) [Donepezil, 1-benzyl-4-[(5,6-dimethoxy-1-indanone)-2-yl]methylpiperidine hydrochloride], the “Number of BrdU positive cells per hippocampus” value in experiment [1] (C57BL/6 mice, 1 mg/kg orally once a day for 14 days, mean ± standard error, n=8, vehicle 1091 ± 56, * p<0.05) was 1528 ± 137*; in experiment [2] (setting [5]), 6880 ± 436*; in experiment [2] (setting [6]), 6694 ± 357*. For the same compound, the “Effect on the volume of hippocampal nerve cell layer (GCL), in words” value in experiment [1] (mice, 1 mg/kg orally, 14 days) is reported as “no effect”. For the same compound, the “Number of BrdU positive cells compared to vehicle group (in words)” value in experiment [1] (mice, 1 mg/kg orally, 14 days, statistically significant, hydrochloride, 1 mg/kg) is on record as “higher; also recorded: increased”. Moreover, the GCL volume in experiment [2] (setting [5]) came out at 1.27 ± 0.04 mm^3; in experiment [2] (setting [6]), 1.35 ± 0.04 mm^3. Besides, in experiment [2] (rats, 0.5 and 2 mg/kg orally, 28 days), the “Influence on the volume of rat hippocampal nerve cell layer (GCL), in words” value is on record as “no influence”. Besides, in experiment [2] (rats, each donepezil group (0.5 and 2 mg/kg orally, 28 days), statistically significant), the “Number of BrdU positive cells per hippocampus compared to vehicle group (in words)” value is on record as “higher”.

Regarding `CN1[C@@H]2CC[C@H]1C[C@@H](OC(=O)C(CO)c1ccccc1)C2` (stereo partly drawn) [atropine], in experiment [3] (25 μmol/L pretreatment for 30 minutes), the “Antagonism of the acetylcholine/carbachol induced intracellular Ca++ increase” value is listed as “completely antagonized; also recorded: completely inhibited”.

For the compound `C[N+](C)(C)CCOC(N)=O` [carbachol], the “Change of intracellular Ca++ concentration on stimulation” value in experiment [3] (25 μmol/L agonist, Fluo-3 fluorescence) is listed as “increases”.

For `Fc1ccc([C@@H]2CCNC[C@H]2COc2ccc3c(c2)OCO3)cc1` [paroxetine], in experiment [4], the “Volume of hippocampus of PTSD patients” value was “increase”.
